The results in this text go back to patent publication EP0019764A1, “Trans-3-(4'-tert.-butyl-cyclohexyl-1')-2-methyl-1-(3'-methylpiperidino, 3',5'-dimethylpiperidino and 2', 6'-dimethylmorpholino) propane, process for their pure preparation, antimycotic agents containing them and their utilisation” (BASF Aktiengesellschaft, priority 1979, dated 1980).

Series [1] concerns Microsporum canis. Description: agar dilution test, minimal inhibitory concentration. In kind it is cell-based. The settings on record: Agardilutionstest, read-out: MHK-Werte. The source says:
(§1) Die Wirkung gegenüber Mikroorganismen kann nach Methoden, wie sie beispielsweise in P. Klein, Bakteriologische Grundlagen der chemotherapeutischen Laboratoriumspraxis, Springer-Verlag Berlin, 1957, beschrieben sind, aufgezeigt werden.
(§2) Beispielsweise wurde geprüft, welche minimalen Hemmkonzentrationen (MHK-Werte) im Agardilutionstest gegen pathogene Pilze erreicht werden können.
(§3) In der folgenden Tabelle 1 sind die Ergebnisse zusammengefaßt: […]

The subject of series [2] is Trichophyton rubrum. The series is described as above. Type of series: cell-based. The settings on record: Stamm No 158/M, Agardilutionstest, read-out: MHK-Werte.
Source text: as §1, §2, §3

Series [3] concerns Epidermophyton floccosum. Described as above. In kind it is cell-based. The settings on record: Stamm No 157/M, Agardilutionstest, read-out: MHK-Werte.
Source text: as §1, §2, §3

The test system of series [4] is Microsporum ferrugineum. The description is as above. Type of series: cell-based. Particulars: Stamm No 5/M, Agardilutionstest, read-out: MHK-Werte.
Source text: as §1, §2, §3

The subject of series [5] is Trichophyton violaceum. The description is as above. Type of series: cell-based. The settings on record: Stamm No 10/M, Agardilutionstest, read-out: MHK-Werte.
Source text: as §1, §2, §3

Series [6] relates to Trichophyton schoenleinii. The series is described as above. Type of series: cell-based. Particulars: Stamm No 9/M, Agardilutionstest, read-out: MHK-Werte.
Source text: as §1, §2, §3

Series [7] concerns Trichophyton mentagrophytes. The series is described as above. In kind it is cell-based. The settings on record: Agardilutionstest, read-out: MHK-Werte.
Source text: as §1, §2, §3

The subject of series [8] is Microsporum gypseum. Described as above. Particulars: Nannizzia gypsea; Stamm No 156/M; Agardilutionstest; read-out: MHK-Werte. Type of series: cell-based.
Source text: as §1, §2, §3

For series [9], the system named is humanpathogenen Pilzen und Hefen aus dem Verwandtschaftskreis der Dermatophyten. Nature of the series: inhibitory effect on microorganisms, trans compound compared with cis compound. Type of series: cell-based. The settings on record: compared with the respective cis compound; Hemmeffekte gegenüber Mikroorganismen. The text has this: Aufgrund der überraschenden Feststellung, daß die reinen trans-Verbindungen gegenüber humanpathogenen Pilzen und Hefen aus dem Verwandtschaftskreis der Dermatophyten um das 10-fache und noch darüber hinaus stärker wirksam sind als die cis-Verbindungen, ist es eine Aufgabe der Erfindung, Verfahren zur Herstellung der reinen trans-Verbindungen (1) bis (3) zu entwickeln.
überraschenderweise sind die reinen trans-Verbindungen fast ausschließlich Träger der guten antimykotischen Wirkung. Verglichen mit der jeweiligen cis-Verbindung und bezogen auf die Hemmeffekte gegenüber Mikroorganismen, sind die trans-Verbindungen (1), (2) und (3) 10-fach und noch darüber hinaus stärker wirksam. Das bedeutet beispielsweise bei etwa gleichen Toxizitätswerten eine wesentliche Verbesserung der therapeutischen Breite.

The nature of series [10]: acute oral toxicity (LD50) in the mouse. Particulars: in vivo, Maus per os. The text has this: Aus diesen LD50-Werten ergibt sich für die topische und systemische Anwendung nach oraler Gabe eine genügend therapeutische Breite.

In general, LD50 refers to the dose expected to kill half of the subjects tested.

Values after ≈ are worked out from the molar mass of the structure shown. Where two headings read alike, the source gives them in different places. Bounds are passed on as bounds.

As to `CC1CCCN(CC(C)C[C@H]2CC[C@H](C(C)(C)C)CC2)C1` (relative stereo) [(1) trans, trans-3-(4'-tert.-Butyl-cyclohexyl-1')-2-methyl-1-(3'--methyl-1'-piperidino)-propan], the MIC amounted to 0.0156 µg/mL (≈ 0.0531 µM) in [1] (Stamm No 155/M); 0.0312 µg/mL (≈ 0.106 µM) in series [1] (Stamm No 167/M); 0.0156 µg/mL (≈ 0.0531 µM) in series [1] (Stamm No 168/M); 0.0625 µg/mL (≈ 0.213 µM) in [1] (Stamm No 169/M); 0.0312 µg/mL (≈ 0.106 µM) in [2]; 0.0312 µg/mL (≈ 0.106 µM) in series [3]. For the same molecule, the MIC in series [4] came out at 0.0078 µg/mL (≈ 0.0266 µM); in [5], 0.0156 µg/mL (≈ 0.0531 µM); in [6], 0.0625 µg/mL (≈ 0.213 µM); in series [7] (Stamm No 19/M), 0.0312 µg/mL (≈ 0.106 µM); in series [7] (Stamm No 21/M), 0.0312 µg/mL (≈ 0.106 µM); in [7] (Stamm No 159/M) it was 0.0078 µg/mL (≈ 0.0266 µM). The MIC was 0.0312 µg/mL (≈ 0.106 µM) in [7] (Stamm No 160/M); 0.0156 µg/mL (≈ 0.0531 µM) in [7] (Stamm No 170/M); 0.0156 µg/mL (≈ 0.0531 µM) in series [7] (Stamm No 171/M); 0.0625 µg/mL (≈ 0.213 µM) in [7] (Stamm No 172/M); 0.0312 µg/mL (≈ 0.106 µM) in series [7] (Stamm No 173/M); 0.0312 µg/mL (≈ 0.106 µM) in series [7] (Stamm No 174/M). For the same molecule, the MIC in series [8] was 0.0156 µg/mL (≈ 0.0531 µM). For the same molecule, the “stärker wirksam als die cis-Verbindung” value in series [9] is reported as at least 10 fach. This molecule also registered an LD50 in [10] of 305 mg/kg.

Regarding `CC(CN1C[C@@H](C)O[C@@H](C)C1)C[C@H]1CC[C@H](C(C)(C)C)CC1` (relative stereo) [(3) trans, trans-3-(4'-tert.-Butyl-cyclohexyl-1')-2-methyl-1--(2',6'-cis-dimethylmorpholino)-propan], the MIC came to 0.0312 µg/mL (≈ 0.101 µM) in series [1] (Stamm No 155/M); 0.0312 µg/mL (≈ 0.101 µM) in series [1] (Stamm No 167/M); 0.0156 µg/mL (≈ 0.0504 µM) in series [1] (Stamm No 168/M); 0.0312 µg/mL (≈ 0.101 µM) in series [1] (Stamm No 169/M); 0.0625 µg/mL (≈ 0.202 µM) in series [2]; 0.0312 µg/mL (≈ 0.101 µM) in series [3]. Moreover, the MIC in series [4] was below 0.0078 µg/mL; in [5], 0.0156 µg/mL (≈ 0.0504 µM); in series [6] it was 0.0156 µg/mL (≈ 0.0504 µM); in [7] (Stamm No 19/M) it was 0.0312 µg/mL (≈ 0.101 µM); in [7] (Stamm No 21/M), 0.0625 µg/mL (≈ 0.202 µM); in series [7] (Stamm No 159/M), below 0.0078 µg/mL. Also, the MIC came to 0.0625 µg/mL (≈ 0.202 µM) in series [7] (Stamm No 160/M); 0.0156 µg/mL (≈ 0.0504 µM) in series [7] (Stamm No 170/M); 0.0156 µg/mL (≈ 0.0504 µM) in [7] (Stamm No 171/M); 0.0625 µg/mL (≈ 0.202 µM) in [7] (Stamm No 172/M); 0.0625 µg/mL (≈ 0.202 µM) in [7] (Stamm No 173/M); 0.0156 µg/mL (≈ 0.0504 µM) in series [7] (Stamm No 174/M). Further, the MIC in series [8] came out at 0.0156 µg/mL (≈ 0.0504 µM). Further, the “stärker wirksam als die cis-Verbindung” value in series [9] is at least 10 fach. In addition, the LD50 in series [10] was 2250 mg/kg.

For `CC(CN1C[C@@H](C)O[C@@H](C)C1)C[C@H]1CC[C@@H](C(C)(C)C)CC1` (relative stereo) [(3) cis, cis- und trans-3-(4'-tert.-Butyl-cyclohexyl-l')-2--methyl-l-(2',6'-cis-dimethyl-morpholyl)-propan], the MIC in series [1] (Stamm No 155/M) is 0.5 µg/mL (≈ 1.62 µM); in series [1] (Stamm No 167/M), 0.0625 µg/mL (≈ 0.202 µM); in series [1] (Stamm No 168/M) it was 0.0625 µg/mL (≈ 0.202 µM); in series [2], above 1 µg/mL; in [3], 0.25 µg/mL (≈ 0.808 µM); in series [4], 0.0312 µg/mL (≈ 0.101 µM). Moreover, the MIC worked out at 1 µg/mL (≈ 3.23 µM) in [7] (Stamm No 19/M); 1 µg/mL (≈ 3.23 µM) in series [7] (Stamm No 21/M); 0.0625 µg/mL (≈ 0.202 µM) in [7] (Stamm No 159/M); 0.0625 µg/mL (≈ 0.202 µM) in [7] (Stamm No 170/M); 0.0625 µg/mL (≈ 0.202 µM) in [7] (Stamm No 171/M); 0.25 µg/mL (≈ 0.808 µM) in series [7] (Stamm No 172/M). For the same molecule, in [7] (Stamm No 173/M), the MIC came to 0.25 µg/mL (≈ 0.808 µM).

As for `CC1CC(C)CN(CC(C)C[C@H]2CC[C@@H](C(C)(C)C)CC2)C1` (relative stereo) [(2) cis, cis- und trans-3-(4'-tert.-Butyl-cyclohexyl-1')-2--methyl-1-(3',5'-dimethyl-1'-piperidino)-propan], the MIC is 0.0312 µg/mL (≈ 0.101 µM) in series [1] (Stamm No 168/M); 0.0625 µg/mL (≈ 0.203 µM) in [4]; 0.0625 µg/mL (≈ 0.203 µM) in [5]; 0.0625 µg/mL (≈ 0.203 µM) in series [6]; 0.25 µg/mL (≈ 0.813 µM) in series [7] (Stamm No 19/M); 0.0156 µg/mL (≈ 0.0507 µM) in [7] (Stamm No 159/M). Besides, the MIC in [7] (Stamm No 170/M) worked out at 0.0625 µg/mL (≈ 0.203 µM); in series [7] (Stamm No 171/M) it was 0.0625 µg/mL (≈ 0.203 µM); in [7] (Stamm No 173/M), 0.25 µg/mL (≈ 0.813 µM).
